Laboratory results published in ChEMBL document CHEMBL1201862, “PubChem BioAssay data set” (2004).
One block for each compound: values may come before it. Calls of active or inactive are those of the source.

Columns and labels:
[1] = target: Cytochrome P450 2D6 (Homo sapiens, UniProt P10635);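 further: CYP2D6 member of a cytochrome P450 panel assay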
[2] = target: T1, Tyrosine-protein phosphatase non-receptor type 7 (Homo sapiens, UniProt P35236); assay: HePTP (PTPN7) phosphatase inhibitor potency, SAR follow-up, biochemical, set 2 (AID 449736); type: functional
T1 sequence (P35236 whole entry): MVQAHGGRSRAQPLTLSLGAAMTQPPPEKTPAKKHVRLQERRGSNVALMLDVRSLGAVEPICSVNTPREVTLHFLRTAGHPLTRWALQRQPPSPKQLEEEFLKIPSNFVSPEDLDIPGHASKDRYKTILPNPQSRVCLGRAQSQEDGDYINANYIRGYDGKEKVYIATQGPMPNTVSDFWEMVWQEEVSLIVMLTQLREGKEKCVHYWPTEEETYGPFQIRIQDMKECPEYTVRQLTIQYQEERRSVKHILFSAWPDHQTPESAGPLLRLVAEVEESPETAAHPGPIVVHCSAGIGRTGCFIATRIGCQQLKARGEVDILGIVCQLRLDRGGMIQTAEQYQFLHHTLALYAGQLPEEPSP

[3] = target: T2, Tyrosine-protein phosphatase non-receptor type 22 (Homo sapiens, UniProt Q9Y2R2); assay: LYP (PTPN22) phosphatase inhibitor potency, SAR follow-up, biochemical, pCAP fluorogenic substrate, fluorescence, set 3 (AID 449727); type: functional
T2 sequence (Q9Y2R2 whole entry): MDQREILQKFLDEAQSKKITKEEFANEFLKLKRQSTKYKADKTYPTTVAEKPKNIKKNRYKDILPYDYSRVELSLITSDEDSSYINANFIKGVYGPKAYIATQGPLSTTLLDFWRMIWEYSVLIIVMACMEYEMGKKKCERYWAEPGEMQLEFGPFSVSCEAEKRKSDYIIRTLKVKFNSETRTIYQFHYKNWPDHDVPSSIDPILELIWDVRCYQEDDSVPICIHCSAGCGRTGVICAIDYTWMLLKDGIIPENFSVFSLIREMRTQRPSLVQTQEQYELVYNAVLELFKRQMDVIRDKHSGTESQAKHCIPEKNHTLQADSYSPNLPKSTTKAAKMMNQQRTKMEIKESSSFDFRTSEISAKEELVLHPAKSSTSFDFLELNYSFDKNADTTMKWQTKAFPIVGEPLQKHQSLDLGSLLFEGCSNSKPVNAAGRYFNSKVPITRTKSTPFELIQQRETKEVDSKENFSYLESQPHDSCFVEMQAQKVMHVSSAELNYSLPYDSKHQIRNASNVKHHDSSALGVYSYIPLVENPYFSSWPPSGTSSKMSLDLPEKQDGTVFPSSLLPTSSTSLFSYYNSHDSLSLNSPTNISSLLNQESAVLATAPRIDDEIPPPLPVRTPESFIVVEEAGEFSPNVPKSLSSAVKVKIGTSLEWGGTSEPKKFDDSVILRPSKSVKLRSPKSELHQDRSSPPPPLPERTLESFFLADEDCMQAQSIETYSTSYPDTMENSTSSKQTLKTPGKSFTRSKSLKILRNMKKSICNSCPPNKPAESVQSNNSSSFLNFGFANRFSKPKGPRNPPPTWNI

[4] = target: G-protein coupled receptor 35 (Homo sapiens, UniProt Q9HC97); assay: SAR Analysis for the identification of Selective Antagonists of ERK1/2 Activity in GPR35-Overexpressing U2OS Cells. [Related pubchem assays: 2079, 2058 ]; type: functional, cell-based
G-protein coupled receptor 35, sequence (Q9HC97 whole entry): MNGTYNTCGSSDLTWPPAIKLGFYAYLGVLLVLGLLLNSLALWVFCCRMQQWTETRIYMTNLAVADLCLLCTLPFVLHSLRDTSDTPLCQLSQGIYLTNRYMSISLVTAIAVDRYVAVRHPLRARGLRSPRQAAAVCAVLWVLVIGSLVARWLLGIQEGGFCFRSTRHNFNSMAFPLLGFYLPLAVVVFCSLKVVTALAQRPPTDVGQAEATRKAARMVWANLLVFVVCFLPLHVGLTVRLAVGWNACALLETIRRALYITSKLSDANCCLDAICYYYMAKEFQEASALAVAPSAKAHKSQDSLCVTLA

[5] = target: T2, Tyrosine-protein phosphatase non-receptor type 22; assay: SAR LYP1 Fluorescent Assay using OMFP substrate for In Vitro dose response studies - Set 3. [Related pubchem assays (depositor defined):AID1779, AID1784, AID2140, AID2686]; type: functional
[6] = target: G-protein coupled receptor 55 (Homo sapiens, UniProt Q9Y2T6); assay: GPR55 antagonists, SAR follow-up, counter-screen for GPR35 antagonist project, imaging, image-based (AID 2397); type: functional
G-protein coupled receptor 55, sequence (Q9Y2T6 whole entry): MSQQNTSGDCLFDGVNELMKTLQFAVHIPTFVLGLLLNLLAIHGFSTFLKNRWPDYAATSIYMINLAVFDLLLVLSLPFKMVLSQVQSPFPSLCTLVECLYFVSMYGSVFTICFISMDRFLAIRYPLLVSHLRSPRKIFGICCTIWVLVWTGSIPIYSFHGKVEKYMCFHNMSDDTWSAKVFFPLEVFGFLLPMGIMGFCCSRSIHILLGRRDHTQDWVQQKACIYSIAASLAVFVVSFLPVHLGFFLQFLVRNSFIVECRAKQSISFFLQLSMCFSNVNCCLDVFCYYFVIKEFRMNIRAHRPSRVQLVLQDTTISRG

[7] = target: Tyrosine-protein phosphatase non-receptor type 12 (Homo sapiens, UniProt Q05209); assay: SAR Selectivity Analysis of small molecule inhibitors of PEST using pCAP in a fluorescence assay. [Related pubchem assays (depositor defined):AID1779, AID1784, AID2135]; type: functional
Tyrosine-protein phosphatase non-receptor type 12, sequence (Q05209 whole entry): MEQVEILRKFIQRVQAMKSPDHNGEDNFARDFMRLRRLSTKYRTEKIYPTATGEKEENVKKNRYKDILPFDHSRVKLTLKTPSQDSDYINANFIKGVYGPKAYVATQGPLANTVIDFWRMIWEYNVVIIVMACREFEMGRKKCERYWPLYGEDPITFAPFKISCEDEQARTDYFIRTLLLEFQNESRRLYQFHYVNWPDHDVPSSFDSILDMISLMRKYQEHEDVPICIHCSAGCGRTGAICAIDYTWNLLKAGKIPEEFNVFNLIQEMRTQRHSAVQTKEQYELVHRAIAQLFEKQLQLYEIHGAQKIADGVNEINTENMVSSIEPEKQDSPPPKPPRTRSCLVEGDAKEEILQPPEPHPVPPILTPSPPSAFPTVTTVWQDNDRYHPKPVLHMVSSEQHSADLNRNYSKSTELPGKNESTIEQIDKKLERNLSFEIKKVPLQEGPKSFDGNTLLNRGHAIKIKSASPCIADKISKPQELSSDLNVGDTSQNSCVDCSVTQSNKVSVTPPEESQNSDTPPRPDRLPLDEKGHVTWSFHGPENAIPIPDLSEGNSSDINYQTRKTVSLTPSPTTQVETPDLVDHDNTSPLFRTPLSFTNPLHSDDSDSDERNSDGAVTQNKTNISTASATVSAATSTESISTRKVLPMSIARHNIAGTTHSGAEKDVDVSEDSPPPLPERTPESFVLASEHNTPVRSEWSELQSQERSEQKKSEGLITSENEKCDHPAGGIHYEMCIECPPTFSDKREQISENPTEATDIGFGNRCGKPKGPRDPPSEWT

[8] = target: T3, Short transient receptor potential channel 4 (Mus musculus, UniProt Q9QUQ5); assay: SAR Analysis for the identification of selective inhibits of the transient receptor potential cation channel C4 (TRPC4): Automated Electrophysiology. [Related pubchem assays (depositor defined):AID2256]; type: functional
T3 sequence (Q9QUQ5 whole entry): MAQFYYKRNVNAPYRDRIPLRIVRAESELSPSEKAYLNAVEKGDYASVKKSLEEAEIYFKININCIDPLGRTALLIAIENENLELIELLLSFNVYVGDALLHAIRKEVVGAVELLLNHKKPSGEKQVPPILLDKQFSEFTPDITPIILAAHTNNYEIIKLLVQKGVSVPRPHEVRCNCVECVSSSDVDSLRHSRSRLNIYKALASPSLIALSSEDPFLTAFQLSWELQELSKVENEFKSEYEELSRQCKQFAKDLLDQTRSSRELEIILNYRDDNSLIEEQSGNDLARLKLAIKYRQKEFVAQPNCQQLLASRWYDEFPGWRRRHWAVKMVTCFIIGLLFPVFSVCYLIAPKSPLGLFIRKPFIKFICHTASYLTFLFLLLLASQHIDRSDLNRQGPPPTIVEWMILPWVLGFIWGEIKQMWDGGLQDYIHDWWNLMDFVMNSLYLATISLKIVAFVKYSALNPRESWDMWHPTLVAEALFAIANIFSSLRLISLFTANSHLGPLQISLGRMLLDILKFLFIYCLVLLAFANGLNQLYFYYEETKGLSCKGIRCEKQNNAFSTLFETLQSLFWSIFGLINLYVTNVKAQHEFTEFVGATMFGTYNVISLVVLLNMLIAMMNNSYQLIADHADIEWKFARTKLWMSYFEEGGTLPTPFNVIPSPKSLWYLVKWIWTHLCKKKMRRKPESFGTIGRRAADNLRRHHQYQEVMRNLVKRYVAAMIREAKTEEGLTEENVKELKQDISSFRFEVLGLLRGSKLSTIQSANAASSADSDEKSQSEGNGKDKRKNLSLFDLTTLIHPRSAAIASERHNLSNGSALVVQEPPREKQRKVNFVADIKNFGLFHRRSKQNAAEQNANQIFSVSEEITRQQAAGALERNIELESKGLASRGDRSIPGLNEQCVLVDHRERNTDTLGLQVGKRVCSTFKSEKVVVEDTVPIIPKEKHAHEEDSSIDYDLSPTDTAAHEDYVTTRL

[9] = target: T3, Short transient receptor potential channel 4; assay: TRPC4 inhibitor concentration-response, dose response, cell-based, HEK293 TRPC4/mu-opioid, DAMGO stimulus, Fluo-4 (AID 492994); type: functional
[10] = test system: Candida albicans; assay: reversal of fluconazole resistance in C. albicans, dose response, CaCi-2 strain, Alamar Blue, dry powder, set 3 (AID 488907); type: functional, organism-based
[11] = target: T4, CAAX prenyl protease 2 (Homo sapiens, UniProt Q9Y256); assay: human Rce1 protease inhibitors, dose response, biochemical, yeast membranes, quenched-peptide fluorescence, cherry-pick (AID 588849)
T4 sequence (Q9Y256 whole entry): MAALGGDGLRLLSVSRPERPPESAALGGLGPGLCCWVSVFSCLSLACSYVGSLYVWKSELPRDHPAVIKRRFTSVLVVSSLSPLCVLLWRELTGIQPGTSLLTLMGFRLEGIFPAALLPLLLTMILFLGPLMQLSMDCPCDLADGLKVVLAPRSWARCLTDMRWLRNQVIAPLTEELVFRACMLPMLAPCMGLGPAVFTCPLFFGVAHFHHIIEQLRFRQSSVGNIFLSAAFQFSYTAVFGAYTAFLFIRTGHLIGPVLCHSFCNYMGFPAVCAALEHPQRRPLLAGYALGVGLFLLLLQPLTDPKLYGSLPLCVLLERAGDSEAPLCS

[12] = target: Trypsin (Sus scrofa, UniProt P00761); assay: porcine trypsin inhibitors, dose response, selectivity assay for Rce1 protease inhibitor project, biochemical, quenched peptide fluorescence, cherry-pick (AID 488789)
Trypsin, sequence (P00761 whole entry): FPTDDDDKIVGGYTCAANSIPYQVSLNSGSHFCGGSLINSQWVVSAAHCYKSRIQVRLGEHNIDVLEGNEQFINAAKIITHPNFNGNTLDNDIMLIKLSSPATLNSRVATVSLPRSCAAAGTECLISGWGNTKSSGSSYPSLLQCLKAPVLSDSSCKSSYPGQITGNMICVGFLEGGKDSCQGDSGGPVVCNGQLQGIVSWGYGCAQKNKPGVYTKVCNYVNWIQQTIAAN

[13] = target: CAAX prenyl protease 1 (Saccharomyces cerevisiae S288c, UniProt P47154); assay: Ste24 protease inhibitors, dose response, biochemical, S. cerevisiae, plate reader, cherry-pick (AID 488815)
CAAX prenyl protease 1, sequence (P47154 whole entry): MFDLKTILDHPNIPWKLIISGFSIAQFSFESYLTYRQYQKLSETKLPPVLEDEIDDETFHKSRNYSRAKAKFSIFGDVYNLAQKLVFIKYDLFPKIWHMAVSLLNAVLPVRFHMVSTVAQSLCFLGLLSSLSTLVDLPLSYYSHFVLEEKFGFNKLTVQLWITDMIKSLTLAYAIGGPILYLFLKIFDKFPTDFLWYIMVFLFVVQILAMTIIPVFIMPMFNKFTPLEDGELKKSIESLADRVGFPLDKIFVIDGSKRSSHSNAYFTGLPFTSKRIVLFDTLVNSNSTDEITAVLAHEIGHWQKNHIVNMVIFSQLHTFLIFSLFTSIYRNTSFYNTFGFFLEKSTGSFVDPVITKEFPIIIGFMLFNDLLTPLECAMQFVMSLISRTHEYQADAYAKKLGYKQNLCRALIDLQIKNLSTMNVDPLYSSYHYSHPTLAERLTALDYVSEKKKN

Cytochrome P450 2D6, sequence (P10635 whole entry): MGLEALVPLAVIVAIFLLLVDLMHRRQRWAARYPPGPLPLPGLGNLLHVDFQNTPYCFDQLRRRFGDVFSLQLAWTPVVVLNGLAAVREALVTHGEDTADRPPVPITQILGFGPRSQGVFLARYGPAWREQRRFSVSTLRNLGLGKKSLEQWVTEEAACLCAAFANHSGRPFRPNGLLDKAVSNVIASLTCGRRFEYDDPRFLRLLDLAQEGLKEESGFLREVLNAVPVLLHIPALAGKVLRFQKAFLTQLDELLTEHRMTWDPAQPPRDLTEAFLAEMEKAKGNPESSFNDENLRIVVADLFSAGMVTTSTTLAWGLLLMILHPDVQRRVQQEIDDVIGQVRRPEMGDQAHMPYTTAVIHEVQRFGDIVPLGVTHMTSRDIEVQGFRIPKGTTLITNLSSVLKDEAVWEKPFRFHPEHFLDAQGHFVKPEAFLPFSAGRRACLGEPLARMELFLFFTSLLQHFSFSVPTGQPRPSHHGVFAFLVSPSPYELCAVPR

Structure (SMILES): CCCS(=O)(=O)N1CCCC(C(=O)NCCCOCC)C1 (stereo not drawn)
- AC50 [1]: inconclusive

Structure (SMILES): O=C(CCCN1C(=O)/C(=C/c2ccc3c(c2)OCO3)SC1=S)Nc1ccc(C(=O)O)c(O)c1
- IC50 [2]: 8.75 µM (active)
- IC50 [3]: 73.1 µM (active)
- IC50 [4]: 2.09 µM (active)
- IC50 [5]: > 100 µM (inactive)
- IC50 [6]: > 32 µM (inactive)
- IC50 [7]: 39.4 µM (active)

Structure (SMILES): COCCC(=O)N1CCN(c2ccccn2)CC1
- AC50 [10]: 5.95 µM (active)

More lines, now with the values ahead:

- IC50 [8]: 140 µM (inactive)
- IC50 [9]: 39 µM (active)
Structure (SMILES): Cc1cc(N2CCOCC2)nc2ccccc12

- AC50 [11]: 10.7 µM (active)
- AC50 [12]: 34.3 µM (active)
- AC50 [13]: 6.88 µM (active)
Structure (SMILES): COc1ccc(OC)c(/C=N/NC(=O)CSc2cc(C)nc3c(OC)cccc23)c1
